Reference: ChEMBL document CHEMBL1828584, “Hybrids of oxoisoaporphine-tacrine congeners: novel acetylcholinesterase and acetylcholinesterase-induced β-amyloid aggregation inhibitors” (Eur J Med Chem, 2011)

Key:
in vitro = details: PAMPA
Description: Permeability of the compound by PAMPA

Acetylcholinesterase = Acetylcholinesterase (Electrophorus electricus, UniProt O42275)
Description: Inhibition of Electrophorus electricus AChE using acetylthiocholine chloride as substrate after 15 mins by Ellman's method

Cholinesterase = Cholinesterase (Equus caballus, UniProt P81908)
Description: Inhibition of equine serum BChE using acetylthiocholine chloride as substrate after 15 mins by Ellman's method

SMILES	Papp (in vitro)	IC50 (Acetylcholinesterase)	IC50 (Cholinesterase)
O=C(CNCCNc1c2c(nc3ccccc13)CCC2)Nc1ccc2c(c1)C(=O)c1cccc3ccnc-2c13	4.6 ×10⁻⁶ cm/s	513 nM	243 nM
O=C(CCNCCNc1c2c(nc3ccccc13)CCC2)Nc1ccc2c(c1)C(=O)c1cccc3ccnc-2c13	1.9 ×10⁻⁶ cm/s	422 nM	1760 nM
O=C(CCNCCCNc1c2c(nc3ccccc13)CCC2)Nc1ccc2c(c1)C(=O)c1cccc3ccnc-2c13	4.9 ×10⁻⁶ cm/s	411 nM	399 nM
O=C(CCNCCCCNc1c2c(nc3ccccc13)CCC2)Nc1ccc2c(c1)C(=O)c1cccc3ccnc-2c13	2.4 ×10⁻⁶ cm/s	910 nM	199 nM
O=C(CNCCNc1c2c(nc3ccccc13)CCCC2)Nc1ccc2c(c1)C(=O)c1cccc3ccnc-2c13	4.8 ×10⁻⁶ cm/s	41 nM	433 nM
O=C(CCNCCNc1c2c(nc3ccccc13)CCCC2)Nc1ccc2c(c1)C(=O)c1cccc3ccnc-2c13	2.6 ×10⁻⁶ cm/s	3.4 nM	110 nM
O=C(CCNCCCNc1c2c(nc3ccccc13)CCCC2)Nc1ccc2c(c1)C(=O)c1cccc3ccnc-2c13	3.3 ×10⁻⁶ cm/s	57.1 nM	199 nM
O=C(CCNCCCCNc1c2c(nc3ccccc13)CCCC2)Nc1ccc2c(c1)C(=O)c1cccc3ccnc-2c13	2.1 ×10⁻⁶ cm/s	182 nM	288 nM
O=C(CNCCNc1c2c(nc3ccccc13)CCCCC2)Nc1ccc2c(c1)C(=O)c1cccc3ccnc-2c13	4 ×10⁻⁶ cm/s	61 nM	211 nM
O=C(CCNCCNc1c2c(nc3ccccc13)CCCCC2)Nc1ccc2c(c1)C(=O)c1cccc3ccnc-2c13	7.9 ×10⁻⁶ cm/s	51.7 nM	65 nM
O=C(CCNCCCNc1c2c(nc3ccccc13)CCCCC2)Nc1ccc2c(c1)C(=O)c1cccc3ccnc-2c13	8.9 ×10⁻⁶ cm/s	260 nM	21.1 nM
O=C(CCNCCCCNc1c2c(nc3ccccc13)CCCCC2)Nc1ccc2c(c1)C(=O)c1cccc3ccnc-2c13	1.1 ×10⁻⁶ cm/s	745 nM	150 nM
Nc1ccc2c(c1)C(=O)c1cccc3ccnc-2c13	–	> 100000 nM	> 100000 nM
